How the values were obtained:
[1] = test system: SNM1A; design: method as in PMID 31380542; details: previous work; cited from earlier work
[2] = target: T1, recombinant SNM1A (698-1040) (Homo sapiens, UniProt Q6PJP8); assay: Gel-based SNM1A inhibition assay (digestion of fluorescent 21-mer oligonucleotide substrate, denaturing PAGE); assay type: biochemical; details: for Lowest Inhibitory Concentration: concentration gradient 1 mM to 1 µM, approximately 3-fold dilutions, 60 min at 37 °C; for Lowest Inhibitory Concentration / Inhibition of SNM1A (extent of digestion of substrate): SNM1A 2.5 nM, substrate 80 nM, 5 min preincubation; for Inhibition of SNM1A (extent of digestion of substrate): 1 mM compound, 60 min incubation (Figure 2c)
T1 construct: SNM1A (698-1040) was expressed and purified as described by Allerston et al; made in house
T1 sequence (Q6PJP8 698-1040): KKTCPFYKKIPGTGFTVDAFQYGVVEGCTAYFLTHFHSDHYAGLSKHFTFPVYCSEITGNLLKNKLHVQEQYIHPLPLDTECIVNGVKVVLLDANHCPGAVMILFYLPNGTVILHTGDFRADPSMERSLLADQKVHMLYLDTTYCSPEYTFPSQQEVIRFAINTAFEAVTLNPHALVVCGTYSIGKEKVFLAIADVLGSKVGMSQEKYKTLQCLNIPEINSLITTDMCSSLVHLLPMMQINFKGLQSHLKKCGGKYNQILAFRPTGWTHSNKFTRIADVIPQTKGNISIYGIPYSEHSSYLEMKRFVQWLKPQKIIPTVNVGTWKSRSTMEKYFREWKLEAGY
Description: The twelve modified nucleosides (Figure 2a) were evaluated as inhibitors of recombinant SNM1A to evaluate binding to the active site, using a previously reported gel-based assay with the same 21-mer oligonucleotide substrate. The nucleosides were incubated with SNM1A for 5 min prior to the addition of the fluorescently tagged 21-mer oligonucleotide substrate and further incubation for 1 h. In the event of the nucleoside binding to the active site, digestion of the substrate proceeds less efficiently (Figure 2b). SNM1A removes nucleotide monomers from the 5′-end, generating a shorter oligonucleotide that in turn is a substrate for SNM1A and can be digested further. The size of the oligonucleotide products, analysed by gel electrophoresis, therefore indicates how strongly a compound binds to the nuclease.
SNM1A (698-1040) was expressed and purified as described by Allerston et al..
SNM1A (698-1040) was stored as a 1.0 µM solution in reaction buffer (20 mM HEPES-KOH, pH 7.5, 50 mM KCl, 10 mM MgCl2, 0.05% Triton-X, 0.1 mg/mL BSA, 5% glycerol, 0.5 mM DTT). An oligonucleotide of the sequence 5′-TTAGCAGTCAGTCAGTCATCG-Cy3-3′ was phosphorylated using T4 PNK (New England Biolabs) and used as the substrate. Modified nucleosides were added to the assay in 40% DMSO solution (10 mM or as specified). Fluorescent oligonucleotides were protected from light during incubations and gel electrophoresis.
Modified nucleosides (10 nmol or as specified) were mixed with SNM1A (698–1040) (25 fmol) in reaction buffer containing 4% DMSO (10 µL) on ice and incubated at 37 °C for 5 min. Phosphorylated oligonucleotide (0.8 pmol) was added and the reaction was incubated at 37 °C for 60 min. The reaction was stopped by the addition of stop solution (2 µL, 95% formamide, 10 mM EDTA) followed by heating to 95 °C for 3 min. The products of the reaction were analysed using gel electrophoresis; 3 µL of each reaction was used.
Oligonucleotides were separated on a 15% acrylamide 6.5 M urea gel (2.9 g urea, 2.7 mL 40% acrylamide-bisacrylamide 25:1, 1.4 mL 5× TBE (0.45 M Tris, 0.45 M boric acid, 0.01 M EDTA pH 8.0), 0.6 mL H2O) in 1X TBE at 150 V for 90 min alongside bromophenol blue and xylene cyanol as markers for 8 and 28 nt, respectively, and imaged using Typhoon FLA 9500.
Figure 2 Evaluation of modified (di)nucleosides as inhibitors of SNM1A. (a) Structures of the twelve (di)nucleosides that were evaluated as inhibitors of SNM1A; (b) schematic representation of assay; (c) gel electrophoresis showing the extent of digestion of fluorescent 21-mer oligonucleotide substrate. SNM1A (2.5 nM) was pre-incubated with the modified (di)nucleosides (1 mM) for 5 min before the oligonucleotide substrate (80 nM) was added and a further 60 min incubation. nt = nucleotides.
Figure 3 Concentration dependence of 5′-C-linked malonate nucleoside 11. Digestion of the phosphorylated oligonucleotide (80 nM) after incubation with SNM1A (2.5 nM) and nucleoside 11 (1000–1 µM) or thymidine (T) (1 mM) for 60 min at 37 °C, analysed by denaturing PAGE. SNM1A was preincubated with the modified nucleoside for 5 min at 37 °C prior to the addition of the substrate. nt = nucleotides.

## Cc1cn([C@H]2C[C@H](O)[C@@H](C(=O)NO)O2)c(=O)[nH]c1=O [Compound 1]
[1]
  Inhibition of SNM1A: inhibit SNM1A to varying degrees

## Cc1cn([C@H]2C[C@H](O)[C@@H](CCC(=O)NO)O2)c(=O)[nH]c1=O [Compound 2]
[1]
  Inhibition of SNM1A: inhibit SNM1A to varying degrees

## COC(=O)C(C[C@H]1O[C@@H](n2cc(C)c(=O)[nH]c2=O)C[C@@H]1O)C(=O)O (stereo partly shown) [Compound 9, C-(5′-Deoxythymidin-5′-yl) monomethyl sodium malonate]
[2]
  Lowest Inhibitory Concentration: 333 µM

## Cc1cn([C@H]2C[C@H](O)[C@@H](CC(C(=O)O)C(=O)O)O2)c(=O)[nH]c1=O [Compound 10, C-(5′-Deoxythymidin-5′-yl) disodium malonate]
[2]
  Lowest Inhibitory Concentration: 333 µM

## Cc1cn([C@H]2C[C@H](O)[C@@H](CC(C(=O)O)C(=O)NO)O2)c(=O)[nH]c1=O (stereo partly shown) [Compound 11, C-(5′-deoxythymidin-5′-yl) sodium N-hydroxymalonamide]
[2]
  Inhibition of SNM1A (extent of digestion of substrate): most potent overall
  Lowest Inhibitory Concentration: 33 µM
[2]; various concentrations, Figure 5b
  Potency compared with previously reported compounds: slightly lower potency than compound 1

## Cc1cn([C@H]2C[C@H](O)[C@@H](CNC(=O)CC(=O)NO)O2)c(=O)[nH]c1=O [Compound 15, N-(5′-Deoxythymidin-5′-yl) amido N-hydroxymalonamide]
[2]
  Inhibition of SNM1A (extent of digestion of substrate): binds SNM1A
  Lowest Inhibitory Concentration: 333 µM

## COC(=O)CC(=O)NC1CC(n2cc(C)c(=O)[nH]c2=O)OC1CO (stereo not shown) [Compound 26, N-(3′-Deoxythymidin-3′-yl) amido methyl malonamide]
[2]
  Inhibition of SNM1A (extent of digestion of substrate): inactive

## Cc1cn([C@H]2C[C@H](NC(=O)CC(=O)O)[C@@H](CO)O2)c(=O)[nH]c1=O [Compound 27, N-(3′-Deoxythymidin-3′-yl) amido sodium malonamide]
[2]
  Lowest Inhibitory Concentration: 333 µM

## Cc1cn([C@H]2C[C@H](NC(=O)CC(=O)NO)[C@@H](CO)O2)c(=O)[nH]c1=O [Compound 28, N-(3′-Deoxythymidin-3′-yl) amido N-hydroxymalonamide]
[2]
  Lowest Inhibitory Concentration: 333 µM

## COC(=O)C(CC1OC(n2cc(C)c(=O)[nH]c2=O)CC1O)C(=O)NC1CC(n2cc(C)c(=O)[nH]c2=O)OC1CO (stereo not shown) [Compound 34, N-(3′-Deoxythymidin-3′-yl)-C-(5′-deoxythymidin-5′-yl) amido methyl malonate]
[2]
  Inhibition of SNM1A (extent of digestion of substrate): some inhibition
  Lowest Inhibitory Concentration: 1000 µM

## Cc1cn(C2CC(O)C(CC(C(=O)O)C(=O)NC3CC(n4cc(C)c(=O)[nH]c4=O)OC3CO)O2)c(=O)[nH]c1=O (stereo not shown) [Compound 35, N-(3′-Deoxythymidin-3′-yl)-C-(5′-deoxythymidin-5′-yl) amido sodium malonate]
[2]
  Inhibition of SNM1A (extent of digestion of substrate): approximately equal potency
  Lowest Inhibitory Concentration: 333 µM

## Cc1cn(C2CC(O)C(CC(C(=O)NO)C(=O)NC3CC(n4cc(C)c(=O)[nH]c4=O)OC3CO)O2)c(=O)[nH]c1=O (stereo not shown) [Compound 36, N-(3′-Deoxythymidin-3′-yl)-C-(5′-deoxythymidin-5′-yl) amido N-hydroxy malonamide]
[2]
  Inhibition of SNM1A (extent of digestion of substrate): approximately equal potency
  Lowest Inhibitory Concentration: 333 µM

## Cc1cn([C@H]2C[C@H](O)[C@@H](CO)O2)c(=O)[nH]c1=O [Thymidine, reference compound]
[2]
  Inhibition of SNM1A (extent of digestion of substrate): no effect on the hydrolysis of the substrate

— publication PMC7827217, “Probing the Binding Requirements of Modified Nucleosides with the DNA Nuclease SNM1A” (Molecules, 2021)
